Assays:
HUVEC = HUVEC proliferation; type: cell-based, human; conditions: FGFR1β3c-driven; ATP content after 3 days
Procedure: Confluent HUVEC cells are harvested and 5 10^4 cells in 100 μl RPMI 1640 (Invitrogen, 32404-014) with 0.5% FCS (Hyclone, SH30070.03), 2 mM glutamine, MEM non-essential amino-acid 1× (Gibco, 11140-035), MEM sodium pyruvate 1× (Gibco, 11360-039) are seeded per well in 96-well collagen 1-coated plates (Beckton Dickinson, 354650) overnight. Then, medium is removed and replace by 50 μl of medium that contains 2×FGF2 (R&D, 234-FSE-025), FGF4 (R&D, 235-F4-025) or FGF-19 (in house produced) and 50 μl of 2×SSR (200 or 600 nM). Cells were incubated in CO2 chamber at 37° C. for 3 days and proliferation is evaluated by quantifying ATP content with 100 μl of “Cell Titer Glo Luminescent cell viability” kit (Promega, G7571).

FGFR2^∂23-Y328D = FGFR2^∂23-Y328D (Homo sapiens, UniProt P21802, Y328D); test: FGF2-induced ERK1/2 phosphorylation in HEK293 cells, FGFR2 Y328D; type: cell-based; design: stably transfected HEK293 cells with full length FGFR2-WT or -Y328D; expressed in transfected cells; host or cells: HEK293; conditions: stable HEK293 FGFR2 Y328D cells; FGF2 0.5 ng/ml 5 min; average±sem, three experiments; read-out: IC50 value, inhibition of FGF2 induced ERK1/2 phosphorylation
Sequence of FGFR2^∂23-Y328D (P21802 22-821 Y328D): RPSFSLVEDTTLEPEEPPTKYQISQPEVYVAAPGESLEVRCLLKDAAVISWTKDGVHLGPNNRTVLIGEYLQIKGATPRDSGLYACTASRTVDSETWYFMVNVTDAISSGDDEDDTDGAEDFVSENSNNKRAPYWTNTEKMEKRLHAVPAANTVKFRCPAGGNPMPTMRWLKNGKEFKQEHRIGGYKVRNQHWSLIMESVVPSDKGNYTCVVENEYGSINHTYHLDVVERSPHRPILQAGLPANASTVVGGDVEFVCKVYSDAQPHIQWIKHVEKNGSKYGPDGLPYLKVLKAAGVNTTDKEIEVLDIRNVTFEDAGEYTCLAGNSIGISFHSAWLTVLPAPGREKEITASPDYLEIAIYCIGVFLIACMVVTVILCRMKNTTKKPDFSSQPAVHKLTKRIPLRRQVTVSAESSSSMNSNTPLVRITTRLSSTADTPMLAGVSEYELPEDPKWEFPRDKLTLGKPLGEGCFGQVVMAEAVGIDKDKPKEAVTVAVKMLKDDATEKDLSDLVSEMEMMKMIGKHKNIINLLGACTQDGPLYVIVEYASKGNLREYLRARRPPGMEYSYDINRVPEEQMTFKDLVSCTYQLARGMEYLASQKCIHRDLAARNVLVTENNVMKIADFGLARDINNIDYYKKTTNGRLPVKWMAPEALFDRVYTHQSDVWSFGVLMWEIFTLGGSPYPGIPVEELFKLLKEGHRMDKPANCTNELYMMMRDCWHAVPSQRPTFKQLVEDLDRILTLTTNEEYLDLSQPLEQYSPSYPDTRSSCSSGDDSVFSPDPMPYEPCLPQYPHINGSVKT
Procedure: HEK293 cells were either transiently of stably transfected (using FuGENE 6, Roche) with hFGFR2IIIca or hFGFR2IIIca-Y328D cloned in pcDNA3 (Invitrogen). Stably transfected cells were grown in G418 (400 μg/ml) containing medium. Before stimulation, the cells were starved overnight in DMEM (0% serum), and pre-incubated with […] at the required concentration. The cells were subsequently stimulated with FGF2 (concentration between 0.5-10 ng/ml) for 5 min at 37° C. with or without SSR or SU5402 at 1 μM. After washing with ice-cold phosphate-buffered saline containing phosphatase inhibitors (Roche), cells were lysed in RIPA buffer (Tris 30 mM HCl pH 7.5, 150 mM NaCl, 1 mM EDTA, 1% triton-X, 0.5% w/v deoxycholate, containing phophatase and protease inhibitors as described by the manufacturer (Roche)). Cell lysates were centrifuged at 12,000 g for 10 min, and the supernatants were collected. Proteins were separated on Novex polyacrylamide gels (Invitrogen, Carlsbad, Calif.) and subsequently transferred onto Hybond ECL nitrocellulose membranes (Amersham Pharmacia). Following incubation with 5% non-fat milk powder in PBS, the membranes were incubated overnight at 4° C. with the following antibodies: phospho-ERK1/2 (CST:9101), phospho-FRS2 (CST:3861), phospho-PLCγ (CST:2821) and FGFR2 (F0300, Sigma).

[1] = target: T1, ECD of FGFR1 (FGFR1^∂123) (Homo sapiens, UniProt P11362); test: STD-NMR / 1D-NMR binding assay, FGFR1 ECD
T1 construct: (ECD; amino acids: 39-358) of the human FGFR1 gene (P11362); His-tag followed by TEV protease cleavage site (N); made in house; host or cells: E. coli BL21(DE3)
T1 sequence (P11362 39-358): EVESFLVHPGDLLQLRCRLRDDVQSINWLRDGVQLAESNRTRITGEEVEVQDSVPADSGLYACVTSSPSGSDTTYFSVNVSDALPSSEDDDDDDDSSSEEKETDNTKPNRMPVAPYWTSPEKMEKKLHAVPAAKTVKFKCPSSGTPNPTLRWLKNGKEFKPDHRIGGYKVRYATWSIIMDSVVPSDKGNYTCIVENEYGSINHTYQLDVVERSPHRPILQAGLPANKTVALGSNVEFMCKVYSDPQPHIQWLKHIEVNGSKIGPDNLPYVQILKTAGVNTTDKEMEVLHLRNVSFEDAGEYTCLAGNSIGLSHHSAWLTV
Procedure: The extracellular domain (ECD; amino acids: 39-358) of the human FGFR1 gene (P11362) was PCR amplified and cloned into E. coli vector pETTEV (with a N-terminal His-tag followed by a TEV protease cleavage site), using NdeI and BamHI restriction sites. For protein production, the resulting plasmid (pET FGFR1 D1D2D3) was transformed into E. coli BL21(DE3) (Novagene). Cells were grown at 37° C. until the OD600 reached 0.6 and recombinant protein production was induced by adding 1 mM IPTG (isopropyl-b-D-thiogalactopyranoside). After 4 hours induction, cells were harvested and stored at −80° C. until usage. The cell pellet (1 L culture) was thawed and resuspended in 50 ml buffer 1 (20 mM Tris/HCl, pH 7.5, 200 mM NaCl) containing lysozyme (2 mg), and 40 U benzonase (Merck). […] Complex formation was analyzed by size exclusion chromatography and subsequent analysis on SDS-PAGE.
All STD- and 1D-NMR experiments were carried out on a BRUKER three-channel DRX600 and on a BRUKER four-channel DRX800 spectrometer at the standard temperature of 298 K and were referenced to the internal standard 3-Trimethyl-2,2,3,3-tetradeuteropropionate-sodium salt (TSP). […] For protein ligand 1D STD NMR measurements spectra were recorded with 1 mM ligand SSR128129E (100 mM DMSO stock solution) and […] protein with weak 2s RF irradiation on separated protein methyl resonances. […]

COc1c(C)c(C(=O)c2ccc(N)c(C(=O)[O-])c2)n2ccccc12.[Na+] [SSR]
FGF2-induced HUVEC proliferation (HUVEC): able to inhibit FGF2-induced HUVEC proliferation | IC50 (FGFR2^∂23-Y328D): 121 ± 30 nM | binding to ECD of FGFR1 ([1]; STD-NMR, confirmed by 1D-NMR peak broadening): bound | STD-NMR signal of SSR to the FGFR with heparin analogue ([1]; presence or absence of sucrose octasulphate (SOS)): comparable signal
